Changes are numbered by the printed parent chain. Like-named read-outs stand apart in the source and are kept apart here.
Assays:
mutant MGL = molecular target: T1, mutant MGL (Homo sapiens, UniProt Q99685, L169S/L176S); test: MGL ThermoFluor assay - mutant; format: binding
T1 sequence (Q99685 1-303 L169S/L176S): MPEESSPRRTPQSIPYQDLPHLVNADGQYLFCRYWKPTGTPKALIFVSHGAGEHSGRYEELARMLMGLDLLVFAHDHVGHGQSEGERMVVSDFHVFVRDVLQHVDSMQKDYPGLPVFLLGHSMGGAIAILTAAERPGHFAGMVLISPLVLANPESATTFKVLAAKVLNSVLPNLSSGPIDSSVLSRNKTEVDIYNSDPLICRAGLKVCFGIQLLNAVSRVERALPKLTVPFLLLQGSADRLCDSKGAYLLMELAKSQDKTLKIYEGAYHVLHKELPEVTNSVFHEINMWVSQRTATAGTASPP

[1] = molecular target: T2, purified wild type MGL (wt-MGLL 6H-11-313) (Homo sapiens, UniProt Q99685)
T2 sequence (Q99685 1-303): T1 sequence (Q99685 1-303 L169S/L176S) with S169L, S176L

[2] = ThermoFluor, compound concentration measured by qNMR, read-out: MGL mutant ThermoFluor qKd (using qNMR conc.)
[3] = ThermoFluor concentration-response, read-out: MGL mutant ThermoFluor Kd
[4] = ThermoFluor thermal stability binding assay, read-out: MGL mutant ThermoFluor Kd
[5] = compound concentration measured by qNMR, read-out: MGL mutant ThermoFluor qKd (using qNMR conc.)
[6] = ThermoFluor, compound concentration measured by qNMR, read-out: MGL mutant ThermoFluor qKd (μM) (using qNMR conc.)

Structure (SMILES)	IC50 [1] [nM]	Kd (mutant MGL; [3]) [µM]	also measured
O=C(c1ccc2c(ccn2-c2cncnc2)c1)N1CC(N2CCN(C(=O)c3nccs3)CC2)C1 [Cpd 1263, 1-Pyrimidin-5-yl-5-({3-[4-(1,3-thiazol-2-ylcarbonyl)piperazin-1-yl]azetidin-1-yl}carbonyl)-1H-indole]	968	–	Kd (mutant MGL; [2]): 0.215 µM
O=C(COc1ccc(C(=O)N2CC(N3CCN(C(=O)c4nccs4)CC3)C2)cc1)Nc1cccc(C(F)(F)F)c1 [Cpd 1041]	19	–	Kd (mutant MGL; [2]): 0.397 µM
O=C(c1ccc2c(c1)CCN2C(=O)C1CC1)N1CC(N2CCN(C(=O)c3nccs3)CC2)C1 [Cpd 773]	845	0.04	–
Cc1c(Cc2ccc(C(F)(F)F)cc2)cccc1C(=O)N1CC(N2CCN(C(=O)c3ccns3)CC2)C1 [Cpd 1014]	257	0.903	–
O=C(c1ccc2[nH]c(C3CCCCC3)nc2c1)N1CCN(C2CN(C(=O)c3cscn3)C2)CC1 [Cpd 853]	8340	1	–
O=C(c1ccc(-c2cccc(C(F)(F)F)c2)cc1)N1CCN(C2CN(C(=O)c3cocn3)C2)CC1 [Cpd 1258]	829	–	Kd (mutant MGL; [4]): 0.02 µM
COc1ccc2c(C)c(C(=O)N3CC(N4CCN(C(=O)c5nccs5)CC4)C3)oc2c1 [Cpd 721]	173	1.14	–
O=C(c1ccccc1)N1CCN(C2CN(C(=O)c3ccc(N4CCOCC4)nc3)C2)CC1 [Cpd 1485, 4-[5-({3-[4-(Phenylcarbonyl)piperazin-1-yl]azetidin-1-yl}carbonyl)pyridin-2-yl]morpholine]	> 16700	10	–
Cc1nn(Cc2ccc(Cl)cc2)c2sc(C(=O)N3CC(N4CCN(C(=O)c5nccs5)CC4)C3)cc12 [Cpd 1053]	18	–	Kd (mutant MGL; [2]): 0.247 µM
Cc1nc2cc(C(=O)N3CC(N4CCN(C(=O)c5nccs5)CC4)C3)ccc2n1-c1ccc(F)cc1 [Cpd 1227]	287	–	Kd (mutant MGL; [5]): 0.011 µM
O=C(c1ccc(OCc2ccc3ccccc3n2)cc1)N1CC(N2CCN(C(=O)c3nccs3)CC2)C1 [Cpd 967]	9	–	Kd (mutant MGL; [4]): 0.044 µM
O=C(c1cscn1)N1CCN(C2CN(C(=O)c3cccc4[nH]c(-c5ccc(Cl)cc5)nc34)C2)CC1 [Cpd 1290]	2700	–	Kd (mutant MGL; [4]): 0.643 µM
O=C(c1ccc(Cc2cccc(C(F)(F)F)c2)cc1)N1CC(N2CCN(C(=O)c3nccs3)CC2)C1 [Cpd 995]	< 5	0.002	–
O=C(c1ccc2c(ccn2-c2cccc(C(F)(F)F)c2)c1)N1CC(N2CCN(C(=O)c3nccs3)CC2)C1 [Cpd 1356, 5-({3-[4-(1,3-Thiazol-2-ylcarbonyl)piperazin-1-yl]azetidin-1-yl}carbonyl)-1-[3-(trifluoromethyl)phenyl]-1H-indole]	< 5	0.002	–
O=C(c1ccc2c(cnn2-c2ccc(C(F)(F)F)cc2)c1)N1CC(N2CCN(C(=O)c3nccs3)CC2)C1 [Cpd 1080]	9	–	Kd (mutant MGL; [6]): 0.006 µM
O=C(c1ccc2c(c1)[nH]c(=O)n2CCC(F)(F)F)N1CC(N2CCN(C(=O)c3nccs3)CC2)C1 [Cpd 938]	698	0.091	–
CCCCCCCCCCCCCCCCCCCC(=O)N1CC(N2CCN(C(=O)c3nccs3)CC2)C1 [Cpd 640]	15900	25	–
O=C(c1ccccc1)N1CCN(C2CN(C(=O)c3cc4ccn(-c5ccc(F)cc5)c4cc3F)C2)CC1 [Cpd 631]	40	–	Kd (mutant MGL; [5]): 0.052 µM
Cc1c(C(=O)N2CC(N3CCN(C(=O)c4cscn4)CC3)C2)cccc1-c1ccccc1 [Cpd 1285]	2320	2.45	–
O=C(c1nccs1)N1CC(N2CCN(C(=O)c3[nH]c4nc(C(F)(F)F)ccc4c3Br)CC2)C1 [Cpd 746]	373	–	Kd (mutant MGL; [2]): 0.263 µM
O=C(c1ccc(Oc2cccnc2)cc1)N1CC(N2CCN(C(=O)c3nccs3)CC2)C1 [Cpd 734]	256	1.26	–
O=C(c1cc2cc(-c3ccccc3)cnc2o1)N1CC(N2CCN(C(=O)c3nccs3)CC2)C1 [Cpd 1209]	193	–	Kd (mutant MGL; [6]): 0.942 µM
O=C(c1ccc(OCc2cncc(Cl)c2)cc1)N1CC(N2CCN(C(=O)C(F)(F)F)CC2)C1 [Cpd 979]	648	–	Kd (mutant MGL; [5]): 1.14 µM
O=C(c1ccccc1)N1CCN(C2CN(C(=O)c3sc4cc(F)ccc4c3C3CCC3)C2)CC1 [Cpd 513]	371	0.009	–
Cc1c(C(=O)N2CC(N3CCN(C(=O)c4nccs4)CC3)C2)sc2ccc(C(F)(F)F)cc12 [Cpd 897]	< 5	–	Kd (mutant MGL; [4]): 0.002 µM

Structure (SMILES)	IC50 [1] [nM]	Kd (mutant MGL; [3]) [µM]	also measured
O=C(c1ccc2nc(-c3ccccn3)sc2c1)N1CC(N2CCN(C(=O)c3nccs3)CC2)C1 [Cpd 1165]	51	–	Kd (mutant MGL; [6]): 0.09 µM
O=C(c1ccc[nH]1)N1CC(N2CCN(C(=O)c3cc4cc(C(F)(F)F)ccc4s3)CC2)C1 [Cpd 722, 1-[1-(1H-Pyrrol-2-ylcarbonyl)azetidin-3-yl]-4-{[5-(trifluoromethyl)-1-benzothiophen-2-yl]carbonyl}piperazine]	180	0.082	–
O=C(c1ccc2c(ccn2-c2ccc(F)cc2)c1)N1CC(N2CCN(C(=O)c3ccc(F)s3)CC2)C1 [Cpd 1427]	6	–	Kd (mutant MGL; [6]): 0.01 µM
O=C(c1ccc2c(ccn2-c2ccc(F)cc2)c1)N1CC(N2CCN(C(=O)c3cnco3)CC2)C1 [Cpd 1429]	36	–	Kd (mutant MGL; [6]): 0.097 µM
O=C(c1ccc(N2CCOCC2)cc1)N1CC(N2CCN(C(=O)c3nccs3)CC2)C1 [Cpd 815]	2490	0.25	–
Cc1c(C(=O)N2CC(N3CCN(C(=O)c4cscn4)CC3)C2)nn(-c2ccc(Cl)cc2Cl)c1-c1ccc(Cl)cc1 [Cpd 1198]	143	–	Kd (mutant MGL; [4]): 0.03 µM
O=C(c1ccc2c(ccn2-c2ccncc2)c1)N1CC(N2CCN(C(=O)c3nccs3)CC2)C1 [Cpd 1127, 1-Pyridin-4-yl-5-({3-[4-(1,3-thiazol-2-ylcarbonyl)piperazin-1-yl]azetidin-1-yl}carbonyl)-1H-indole]	20	–	Kd (mutant MGL; [2]): 0.098 µM
O=C(c1cccc(-c2ccc(F)cc2F)c1)N1CC(N2CCN(C(=O)c3cscn3)CC2)C1 [Cpd 1239]	449	3.04	–
O=C(c1ccc(Sc2cccc(C(F)(F)F)c2)cc1)N1CC(N2CCN(C(=O)C(F)(F)F)CC2)C1 [Cpd 790]	1420	–	Kd (mutant MGL; [5]): 2.49 µM
Cc1ccc2c(C(F)(F)F)c(C(=O)N3CC(N4CCN(C(=O)c5nccs5)CC4)C3)sc2c1 [Cpd 707, 1-(1-{[6-Methyl-3-(trifluoromethyl)-1-benzothiophen-2-yl]carbonyl}azetidin-3-yl)-4-(1,3-thiazol-2-ylcarbonyl)piperazine]	105	0.002	–
O=C(c1ccc(-c2cccc(C(F)(F)F)c2)cc1)N1CC(N2CCN(C(=O)c3ncco3)CC2)C1 [Cpd 1085]	9	–	Kd (mutant MGL; [6]): 0.008 µM
O=C(c1cccc(-c2ccc(C(F)(F)F)cc2)c1)N1CC(N2CCN(C(=O)c3cscn3)CC2)C1 [Cpd 1278]	1860	5.19	–
O=C(c1ccccc1)N1CCN(C2CN(C(=O)c3ccc4c(ccn4-c4ccc(Cl)c(F)c4)c3)C2)CC1 [Cpd 568]	72	–	Kd (mutant MGL; [6]): 0.099 µM
O=C(c1ccc(Oc2ncc(C(F)(F)F)cc2Cl)cc1)N1CC(N2CCN(C(=O)C(F)(F)F)CC2)C1 [Cpd 802]	1720	–	Kd (mutant MGL; [5]): 1.67 µM
Cc1nn(-c2cccc(C(F)(F)F)c2)c2sc(C(=O)N3CC(N4CCN(C(=O)c5nccs5)CC4)C3)cc12 [Cpd 1146]	32	–	Kd (mutant MGL; [2]): 0.08 µM
Cc1nc2cc(C(=O)N3CC(N4CCN(C(=O)c5nccs5)CC4)C3)ccc2n1C1CCC(F)(F)CC1 [Cpd 798]	1630	–	Kd (mutant MGL; [5]): 0.004 µM
Cc1c(C(=O)N2CC(N3CCN(C(=O)c4cscn4)CC3)C2)oc2ccc(F)cc12 [Cpd 862]	9510	> 21.9	–
CC(=O)NCCOc1ccc(C(=O)N2CC(N3CCN(C(=O)c4nccs4)CC3)C2)cc1 [Cpd 836]	4760	–	Kd (mutant MGL; [2]): 2.25 µM
CC1(C)C=C(c2ccc(C(=O)N3CC(N4CCN(C(=O)c5nccs5)CC4)C3)cc2)CC(C)(C)O1 [Cpd 706]	103	0.001	–
O=C(c1ccc2nn(-c3cccc(OC(F)(F)F)c3)cc2c1)N1CC(N2CCN(C(=O)c3cscn3)CC2)C1 [Cpd 1422]	14	–	Kd (mutant MGL; [6]): 0.195 µM
Cc1c(C(=O)N2CC(N3CCN(C(=O)c4cscn4)CC3)C2)n(C)c2ccc(Cl)cc12 [Cpd 758]	535	–	Kd (mutant MGL; [2]): 0.5 µM
O=C(c1ccc2c(c1)C(Cc1cccc(C(F)(F)F)c1)(Cc1cccc(C(F)(F)F)c1)C(=O)N2)N1CC(N2CCN(C(=O)c3nccs3)CC2)C1 [Cpd 992]	7760	0.561	–
O=C(c1ccc(-c2cccc(C(F)(F)F)c2)cc1)N1CC(N2CCN(C(=O)c3ccc(Cl)s3)CC2)C1 [Cpd 1143]	30	–	Kd (mutant MGL; [6]): 0.07 µM
O=C(c1nn(-c2ccc(Cl)cc2Cl)c2c1CCCC2)N1CC(N2CCN(C(=O)C(F)(F)F)CC2)C1 [Cpd 1311]	14600	–	Kd (mutant MGL; [5]): 67.5 µM

Reference: US8362000B2, “Azetidinyl diamides as monoacylglycerol lipase inhibitors” (Janssen Pharmaceutica NV, priority 2009, dated 2013)
